Values joined by “and” are separate entries in the source; they are usually repeats but may differ in a detail not shown here. Equal values may be shown once.
Legend:
[1] = system: animal models; assay: animal models, oral dosing (earlier studies); assay type: in vivo; details: oral dose of 25 mg/Kg, previous studies
Description: For example, the mildly painful stimuli from scratching are effective in abolishing the itch sensation. In contrast, analgesics such as opioids can generate severe pruritis. The antagonistic interaction between pain and itch can be exploited in pruritis therapy, and current research concentrates on the identification of common targets for future analgesic and antipruritis therapy. […] Accordingly, COMPOUND A, as an enantiomer or a pharmaceutically acceptable salt thereof, can also be useful for treating pruritis.
Following paw withdrawal baseline measurements, animals were randomly divided into 4 different test groups (N=8 animals/group), including a vehicle control group for oral dosage, a vehicle control group for topical dosage, and two treatment groups. For the oral dosage groups, animals were dosed by oral gavages after baseline measurement. […] For the topical dosage groups, 50 mg of the test composition was applied on the ipsilateral ankle and foot. […] Von Frey withdrawal thresholds were measured as the mean of several independent determinations made within 1-2 minutes of each other on the affected paw of each animal. Withdrawal measurements were taken 60 minutes post dosing for the oral dosage group and 30 minutes post-dosing for the topical dosage group, representing their respective peak efficacy time points as determined in previous studies.

[2] = systemic plasma concentration after topical or oral dosing in CCI rats (HPLC/MS/MS); assay type: in vivo, male Sprague Dawley rats; details: 8% (w/w) topical vs 25 mg/Kg oral, blood 10-15 minutes after efficacy time points, p<0.0001
Description: Blood samples were taken from the same animals immediately after withdrawal threshold measurements using the following procedure at approximately 10-15 minutes after their respective efficacy time points. The rats were bled by jugular vein puncture while under anaesthesia. The time at which each blood sample was drawn, relative to the time of dosing, was recorded. Each blood sample (˜150 μL) was collected into a heparin-coated, labelled microvette tube containing 10 μL of heparin (100 Units) and placed on ice immediately. The blood samples were centrifuged at 4° C. to separate the plasma. The plasma was transferred to labelled tubes and snap-frozen in liquid nitrogen for storage at −80° C. At the time of analysis, the plasma was thawed and extracted using solid phase extraction, and the plasma drug concentration was quantified by HPLC/MS/MS.

[3] = system: sodium channel; assay: guanidine influx assay disclosed in WO 06/110917; assay type: cell-based; details: read-out: IC50, inhibition of ion flux through a sodium channel
Description: The IC50 (“Inhibitory Concentration—50%”) is a measure of the amount of compound required to achieve 50% inhibition of ion flux through a sodium channel, over a specific time period, in an assay of the invention.

[4] = system: CCI neuropathic pain model; assay: efficacy of topical versus oral administration, Chronic Constriction Injury, von Frey; assay type: in vivo, male Sprague Dawley rats; details: p<0.001 vs vehicle
Description: The Chronic Constriction Injury (CCI) model, an established neuropathic pain model in the rat, is used in this study to compare the levels of efficacy and systemic exposure of COMPOUND A between the topical and oral administration in male rats.
A peripheral neuropathy was induced in rats by placing loose constrictive ligatures around the common sciatic nerve as described by Bennett G J, and Xie Y-K., Pain, (1988) 33: pp. 87-107. Eight-week old male Sprague Dawley rats were anaesthetized with 3.5% isoflurane, and a 3 cm incision was made through the skin and fascia at the mid-thigh level of the animal's left hind leg using a no. 10 scalpel blade. […]
A painful neuropathy was allowed to develop in the ipsilateral leg as determined by lower paw withdrawal thresholds to a mechanical stimulus. Only those with significant hyperalgesia as determined by reduced threshold, measured in grams, to paw withdrawal to the von Frey filament were enrolled in the study.
The paw withdrawal thresholds of animals from mechanical tactile stimuli were measured using the Model 2290 Electrovonfrey anesthesiometer (IITC Life Science, Woodland Hills, Calif.). […] After 15 minutes of accommodation in this enclosure, a von Frey hair was applied perpendicularly to the plantar surface of the ipsilateral hind paws of the animals, with sufficient force, measured in grams, to elicit a crisp response of the paw. […]

O=C1N(Cc2ccc(C(F)(F)F)o2)c2ccccc2[C@]12COc1cc3c(cc12)OCO3 [COMPOUND A, (S)-1′-{[5-(trifluoromethyl)furan-2-yl]methyl}spiro[furo[2,3-f][1,3]benzodioxole-7,3′-indol]-2′(1′H)-one]
reversal of pain response [1]: approximately half-maximal reversal of pain response | plasma level in topical dosage group lower than in oral dosage group (fold) [2]: ~20 × | IC50 [3]: < 1000 nM | paw withdrawal threshold, percent mean change from baseline (CFB) ([4]; 25 mg/Kg oral gavage, 60 minutes post-dosing): 44.3% and 44% | paw withdrawal threshold, percent mean change from baseline (CFB) ([4]; 8% (w/w) topical, 50 mg on ipsilateral ankle and foot, 30 minutes post-dosing): 47.1% and 47%

From US9504671B2, “Pharmaceutical compositions of spiro-oxindole compound for topical administration and their use as therapeutic agents” (Xenon Pharmaceuticals Inc., priority 2010, dated 2016)
